From patent US11447486B2, “2-amino-benzimidazole derivatives and their use as 5-lipoxygenase and/or prostaglandin E synthase inhibitors” (INSTITUT PASTEUR KOREA, priority 2014, dated 2022)

Key:
human 5-LOX = biological target: T1, human 5-LOX (Homo sapiens, UniProt P09917); assay: 5-LOX enzyme activity, fluorescence method (5-HPETE, H2DCFDA); type: biochemical; details: read-out: 5-LO (IC50)
T1 construct: purchased Cayman 60402; host or cells: insect cells (lysate)
T1 sequence (P09917 1-674): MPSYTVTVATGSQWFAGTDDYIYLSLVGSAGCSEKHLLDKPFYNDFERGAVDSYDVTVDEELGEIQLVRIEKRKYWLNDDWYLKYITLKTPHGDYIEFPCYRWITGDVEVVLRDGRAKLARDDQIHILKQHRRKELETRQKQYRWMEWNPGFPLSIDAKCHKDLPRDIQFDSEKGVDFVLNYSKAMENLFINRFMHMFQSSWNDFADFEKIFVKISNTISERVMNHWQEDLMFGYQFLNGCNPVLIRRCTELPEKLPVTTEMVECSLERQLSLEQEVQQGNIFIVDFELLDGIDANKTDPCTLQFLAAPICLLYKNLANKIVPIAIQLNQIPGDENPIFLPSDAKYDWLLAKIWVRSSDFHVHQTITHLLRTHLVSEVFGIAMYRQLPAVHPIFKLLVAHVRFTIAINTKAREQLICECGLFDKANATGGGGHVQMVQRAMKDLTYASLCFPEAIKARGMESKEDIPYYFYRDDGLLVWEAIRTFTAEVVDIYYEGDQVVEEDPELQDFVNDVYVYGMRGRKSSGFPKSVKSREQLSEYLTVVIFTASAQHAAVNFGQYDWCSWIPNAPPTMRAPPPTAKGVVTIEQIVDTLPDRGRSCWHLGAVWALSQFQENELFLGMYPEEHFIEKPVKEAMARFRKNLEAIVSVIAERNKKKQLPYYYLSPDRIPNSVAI
Outline: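 Fluorescence-based read-out, run entirely at room temperature. Enzyme mixture was exposed to a dose range of compound from 0.5 nM to 10 uM for 5 min before ATP and arachidonic acid were added to final levels of 100 uM and 3 uM.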

[1] = tested on: Rat basophilic leukemia (RBL) cells; assay: LTB4 secretion assay in RBL (rat basophilic leukemia cells); type: cell-based; details: Rattus norvegicus, RBL
Outline: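 LTB4 released into supernatant was measured by EIA after 10 min at 37 °C with arachidonic acid (2.5 uM final) and calcium ionophore A23187 (5 uM final). Before stimulation, cells plated 2×10^4/well overnight received compound doses (5 nM to 100 uM) for 15 min in 0.5% FBS medium.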

SMILES | IC50 (human 5-LOX) [µM] | EC50 [1] [µM]
CCN(c1ccc2nc(NCc3ccc(Oc4ccc(Cl)cn4)cc3)n(C)c2c1)C1COC1 [Compound 278] | < 1 | < 10
Cn1c(N(CCO)Cc2ccc(Oc3ccc(Cl)cn3)cc2)nc2ccc(NC3COC3)cc21 [Compound 318] | < 1 | > 20
Cn1c(NCc2ccc(Oc3ncc4cc(Cl)ccc4n3)cc2)nc2ccc(N)cc21 [Compound 405] | < 1 | < 10
Cn1nccc1-c1ccc(CNc2nc3cc(NC4COC4)ccc3[nH]2)cc1 [Compound 201] | < 1 | > 20
Cn1c(NCc2ccc(Oc3ncc4ccc(Cl)cc4n3)cc2)nc2ccc(NC3COC3)cc21 [Compound 444] | < 1 | 10 to 20
Cn1c(NCc2ccc(Oc3ccc(Cl)cn3)cc2)nc2ccc(NC(C)(C)CO)cc21 [Compound 325] | < 1 | < 10
Cn1c(NCc2ccc(Oc3ccc(Cl)nc3)cc2)nc2ccc(N)cc21 [Compound 280] | < 1 | < 10
Cn1c(NCc2ccc(Oc3ncc(Cl)cn3)cc2)nc2ccc(NC(N)=O)cc21 [Compound 429] | > 10 | 10 to 20
CC(Nc1ccc2[nH]c(N(C)C)nc2c1)c1ccc(Oc2ccc(Cl)cc2)cc1 (stereo not shown) [Compound 131] | < 1 | < 10
Cn1c(NCN2CC(Cc3ccccc3)OC2=O)nc2ccc(N)cc21 (stereo not shown) [Compound 174] | 1 to 10 | > 20
Nc1ccc2nc(NCc3coc(Cc4ccc(Cl)cc4)n3)[nH]c2c1 [Compound 186] | < 1 | < 10
Cn1c(NCc2ccc(Oc3nccc4cc(Cl)ccc34)cc2)nc2ccc(N)cc21 [Compound 438] | < 1 | 10 to 20
Cn1c(NCc2ccc(Oc3ncc(C(F)(F)F)cn3)cc2)nc2c(F)cc(NC3COC3)cc21 [Compound 551] | < 1 | < 10
CN(C)c1nc2cc(NC3COC3)ccc2n1CCOc1ccc(Cl)cc1 [Compound 41] | 1 to 10 | 10 to 20
Nc1ccc2[nH]c(NC(=O)c3ccc(F)cc3)nc2c1 [Compound 26] | 1 to 10 | > 20
Nc1cc(Cl)c2nc(N3CCCC3)n(CCOc3ccc(OC(F)(F)F)cc3)c2c1 [Compound 89] | < 1 | > 20
CN(C)c1nc2cc(Nc3ccn(C)n3)ccc2n1CCOc1ccc(OC(F)(F)F)cc1 [Compound 46] | > 10 | < 10
Nc1ccc2nc(NCC(Oc3ccc(Cl)cc3)c3ccccc3)[nH]c2c1 (stereo not shown) [Compound 169] | < 1 | < 10
FC(F)(F)Oc1ccc(OCCn2c(N3CCCC3)nc3cc(N4CCC4)ccc32)cc1 [Compound 85] | 1 to 10 | > 20
Cc1ccc(Oc2ccc(CNc3nc4ccc(N)cc4n3C)cc2)nc1 [Compound 352] | < 1 | < 10
Nc1ccc2nc(NCc3ccc(C(=O)c4ccccn4)cc3)[nH]c2c1 [Compound 141] | < 1 | > 20
Cn1c(NCc2ccc(Oc3cnc4cc(Cl)ccc4n3)cc2)nc2ccc(NC3COC3)cc21 [Compound 427] | < 1 | < 10
Nc1ccc2c(c1)nc(-n1cc(F)cn1)n2CCOc1ccc(OC(F)(F)F)cc1 [Compound 82] | > 10 | 10 to 20
CCC(Nc1nc2ccc(NC3COC3)cc2n1C)c1ccc(Oc2ccc(C(F)(F)F)cn2)cc1 (stereo not shown) [Compound 549] | < 1 | < 10
COCCNc1ccc2nc(NCc3ccc(Oc4ccc(Cl)cn4)cc3)n(C)c2c1 [Compound 316] | < 1 | < 10

SMILES | IC50 (human 5-LOX) [µM] | EC50 [1] [µM]
Cn1c(NCc2ccc(Oc3ncc(Cl)cn3)cn2)nc2ccc(NC3COC3)cc21 [Compound 355] | 1 to 10 | > 20
Cn1c(NCc2ccc(Oc3ncc(Cl)cn3)cc2)nc2ccc(NC3C[S+]([O-])C3)cc21 (stereo not shown) [Compound 386] | 1 to 10 | > 20
Cn1c(NCc2ccc(Oc3nc4ccccc4n3C)cc2)nc2ccc(N)cc21 [Compound 356] | < 1 | 10 to 20
Cn1c(N2CCC(c3ccc(OC(F)(F)F)cc3)CC2)nc2ccc(N)cc21 [Compound 157] | < 1 | > 20
NC(=O)CNc1nc2ccc(N)cc2n1Cc1ccc(Oc2ccc(Cl)cc2)cc1 [Compound 217] | < 1 | < 10
Cn1c(NCc2ccc(-n3ccc4cc(Cl)cnc43)cc2)nc2ccc(NC3COC3)cc21 [Compound 446] | < 1 | < 10
Cn1c(NCc2ccc(Oc3ncc(Cl)cn3)cc2)nc2ccc(NC3CN(C(N)=O)C3)cc21 [Compound 408] | < 1 | > 20
Cn1c(NCc2ccc(Oc3ccc4c(Cl)cccc4n3)cc2)nc2ccc(N)cc21 [Compound 424] | < 1 | < 10
c1ccc(Oc2ccc(CNc3nc4cc(NC5CCC5)ccc4[nH]3)cc2)cc1 [Compound 96] | < 1 | < 10
Cn1c(NCc2ccc(Oc3nccc(C(F)(F)F)n3)cc2)nc2ccc(N)cc21 [Compound 363] | < 1 | > 20
CCC(Nc1nc2ccc(Nc3cc(C(F)(F)F)n(C)n3)cc2n1C)c1ccc(Oc2ncc(C(F)(F)F)cn2)cc1 (stereo not shown) [Compound 520] | > 10 | < 10
Nc1ccc2nc(NCc3ccc4cc(Cl)ccc4n3)[nH]c2c1 [Compound 156] | < 1 | 10 to 20
CCC(Nc1nc2ccc(N)cc2n1C)c1ccc(Oc2ccc(Cl)cn2)cc1 (stereo not shown) [Compound 274] | < 1 | < 10
Cn1c(NCc2ccc(Oc3ccnc4c(Cl)cccc34)cc2)nc2ccc(N)cc21 [Compound 387] | < 1 | < 10
Cn1c(NCc2ccc(Oc3ncc(Cl)cn3)c(Cl)c2)nc2ccc(N)cc21 [Compound 391] | < 1 | < 10
COC(=O)c1ccc(CNc2ccc3nc(N(C)C)[nH]c3c2)cc1 [Compound 179] | < 1 | < 10
CC(C)c1cc(CNc2nc3ccc(NC4COC4)cc3n2C)ccc1Oc1ncc(Cl)cn1 [Compound 396] | < 1 | < 10
Nc1ccc2nc(N)n(Cc3ccc(Oc4ccc(Cl)cn4)c(F)c3)c2c1 [Compound 248] | < 1 | < 10
Cn1c(NCc2ccc(Oc3ccc(Cl)cn3)c(F)c2)nc2ccc(N)cc21 [Compound 267] | < 1 | < 10
Cn1c(NCc2ccc(Oc3ccc(OC(F)(F)F)cc3)cc2)nc2ccc(NC3COC3)cc21 [Compound 293] | < 1 | < 10
Cn1c(NCc2ccc(Oc3ccc(Cl)cn3)cc2)nc2ccc(NCCO)cc21 [Compound 313] | < 1 | < 10
Nc1ccc2c(c1)nc(N1CCCC1)n2CCc1ccc(F)cc1 [Compound 50] | 1 to 10 | 10 to 20
Cn1c(NCc2ccc(Oc3ncc(Cl)cn3)cc2)nc2ccc(NCCN3CCOCC3)cc21 [Compound 379] | < 1 | < 10
Cn1c(NCc2ccc(Oc3ncc(Cl)cn3)cc2)nc2ccc(Nc3n[nH]cc3C(N)=O)cc21 [Compound 488] | 1 to 10 | > 20
Cn1c(NCc2ccc(Oc3cnc(Cl)nc3)cc2)nc2ccc(N)cc21 [Compound 340] | < 1 | < 10
